Laboratory results published in patent EP4603105A1, “PHARMACEUTICAL COMPOSITION CONTAINING CYCLIC COMPOUND HAVING SELECTIVE KRAS INHIBITORY EFFECT AGAINST HRAS AND NRAS” (CHUGAI SEIYAKU KABUSHIKI KAISHA, priority 2022, dated 2024).
Where a SMILES comes first, the peptide text is derived from it. Bridges are numbered along the chain shown (N, C = ends). [ ]: non-standard residue; d: D form. The star is where a group is joined. hPhe(3,5-F2-4-CF3) = N[C@@H](CCc1cc(F)c(C(F)(F)F)c(F)c1)C(=O)O; hPhe(3-Cl-4-CF3) = N[C@@H](CCc1ccc(C(F)(F)F)c(Cl)c1)C(=O)O; NPrPhe(4-CF3) = CCCN[C@@H](Cc1ccc(C(F)(F)F)cc1)C(=O)O; NPrPhe(4-Me) = CCCN[C@@H](Cc1ccc(C)cc1)C(=O)O; NMeGly(cPent) = CN[C@H](C(=O)O)C1CCCC1; Pro(4,4-F2) = O=C(O)[C@@H]1CC(F)(F)CN1; NMeD = CN[C@@H](CC(=O)O)C(=O)O; Ac4c(3-oxa) = NC1(C(=O)O)COC1; NMeL = CN[C@@H](CC(C)C)C(=O)O; Morpholide = C1CN(*)CCO1; Ac5c = NC1(C(=O)O)CCCC1; Aze = O=C(O)[C@@H]1CCN1; NEtG = CCNCC(=O)O; Sar = CNCC(=O)O

How the values were obtained:
[1] = target: GDP-bound NRAS wild-type protein (Homo sapiens, UniProt P01111); experiment: Binding to NRAS by surface plasmon resonance (SPR), KD and KD ratio to KRAS
GDP-bound NRAS wild-type protein, sequence (P01111 whole entry): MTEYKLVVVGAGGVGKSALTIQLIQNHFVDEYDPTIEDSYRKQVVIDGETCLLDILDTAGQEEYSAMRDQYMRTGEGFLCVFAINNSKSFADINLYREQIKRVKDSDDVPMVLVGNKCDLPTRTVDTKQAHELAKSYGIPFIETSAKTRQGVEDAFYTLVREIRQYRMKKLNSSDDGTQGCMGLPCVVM
Outline: (§1)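 SPR, 30°C: Avi-biotin RAS·GDP captured via Biotin CAPture (~100–300 RU); running buffer HBS pH 7.4, 1 mM DTT, 10 mM MgCl2, 0.01% Tween 20, 10 µM GDP, 4% DMSO. Single-cycle kinetics, 100 µL/min, 75 s injections; 1:1 model → KD.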

HRAS wild-type protein = HRAS wild-type protein (Homo sapiens, UniProt P01112); experiment: Binding to HRAS by surface plasmon resonance (SPR), KD and KD ratio to KRAS
HRAS wild-type protein, sequence (P01112 whole entry): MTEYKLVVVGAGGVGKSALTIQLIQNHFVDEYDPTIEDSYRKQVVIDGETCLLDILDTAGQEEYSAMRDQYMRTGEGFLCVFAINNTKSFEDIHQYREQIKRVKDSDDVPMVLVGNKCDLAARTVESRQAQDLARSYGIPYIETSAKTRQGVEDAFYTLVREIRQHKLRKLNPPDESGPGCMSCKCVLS
Outline: as §1

[2] = system: human lung cancer strain NCI-H441; assay type: cell-based
Outline: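 Proliferation was scored by […] measured after the reagent was added to cultures kept at 37°C in 5% carbon dioxide.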

[3] = ratio of the KD value with respect to GDP-bound NRAS wild-type protein to the KD value with respect to KRAS
[4] = ratio of the KD value with respect to HRAS wild-type protein to the KD value with respect to KRAS
[5] = ratio of KD value for GDP-bound NRAS wild-type protein to KD value for KRAS (SPR)
[6] = ratio of KD value for HRAS wild-type protein to KD value for KRAS (SPR)
[7] = ratio of KD for GDP-bound NRAS wild-type protein to KD for KRAS
[8] = ratio of KD for HRAS wild-type protein to KD for KRAS

With `CCO[C@@H]1C[C@H]2C(=O)NC3(CCC3)C(=O)N(C)[C@@H](C3CCCC3)C(=O)N(C)[C@H](C(=O)N3CCOCC3)CC(=O)N(C)C[C@@H](C)C(=O)N[C@@H]([C@@H](C)CC)C(=O)N(C)CC(=O)N(C)[C@H]3CCCCN(C3=O)[C@@H](Cc3ccc(C(F)(F)F)cc3)C(=O)N(C)CC(=O)N[C@@H](CCc3cc(F)c(C(F)(F)F)c(F)c3)C(=O)N2C1` [PP0721] the “NRAS /KRAS” value [1, 3] was “B (a compound having 3 or more and less than 10 is denoted as B)”, the “HRAS /KRAS” value (HRAS wild-type protein; [4]) was “B (a compound having 3 or more and less than 10 is denoted as B)” and the IC50 [2] was 4700 nM.
In the case of `CCCOC[C@H]1C(=O)N[C@@H]([C@@H](C)CC)C(=O)N(C)CC(=O)N(C)[C@H]2C/C=C\CCN(C2=O)[C@@H](Cc2ccc(C(F)(F)F)cc2)C(=O)N(C)CC(=O)N[C@@H](CCc2cc(F)c(C(F)(F)F)c(F)c2)C(=O)N2C[C@H](OCC)C[C@H]2C(=O)NC2(CC(C)(C)C2)C(=O)N(C)[C@@H](C2CCCC2)C(=O)N(C)[C@H](C(=O)N(C)CCC)CC(=O)N1C` [PP1673], the “NRAS /KRAS” value [1, 5] is reported as “A (a compound having 10 or more and less than 20 is denoted as A)”, the “HRAS /KRAS” value (HRAS wild-type protein; [6]) is reported as “A (a compound having 10 or more and less than 20 is denoted as A)” and the IC50 [2] is reported as 6 nM.
With `CC[C@H](C)[C@@H]1NC(=O)[C@H](CC(C)C)N(C)C(=O)C[C@@H](C(=O)N2CCOCC2)N(C)C(=O)[C@H](C2CCCC2)N(C)C(=O)C2(CCCC2)NC(=O)[C@@H]2CCCN2C(=O)[C@H](CCc2ccc(C(F)(F)F)c(Cl)c2)NC(=O)CN(C)C(=O)[C@H](Cc2ccc(C(F)(F)F)cc2)N2CC/C=C\C[C@@H](C2=O)N(C)C(=O)CN(C)C1=O` [PP0463] the “NRAS /KRAS” value [1, 3] was “A (a compound having 10 or more and less than 20 is denoted as A)”, the “HRAS /KRAS” value (HRAS wild-type protein; [4]) was “A (a compound having 10 or more and less than 20 is denoted as A)” and the IC50 [2] was 26.3 nM.
`CCCN1C(=O)CN(CC)C(=O)CN(C)C(=O)[C@H]([C@@H](C)CC)NC(=O)[C@H](CC(C)C)N(C)C(=O)C[C@@H](C(=O)N2CCOCC2)N(C)C(=O)[C@H](C2CCCC2)N(C)C(=O)C2(CCCC2)NC(=O)[C@@H]2CCCN2C(=O)[C@H](CCc2ccc(C(F)(F)F)c(Cl)c2)NC(=O)CN(CC)C(=O)[C@@H]1Cc1ccc(C)cc1` [PP0069] ([NMeL]I[Sar][NEtG][NPrPhe(4-Me)][NEtG][hPhe(3-Cl-4-CF3)]P[Ac5c][NMeGly(cPent)][NMeD]-Morpholide; lactam N-11) was tested, and the “NRAS /KRAS” value [1, 7] was “C (A compound having a KD ratio of 0.1 or more and less than 3 is denoted as C)”, the “HRAS /KRAS” value (HRAS wild-type protein; [8]) was “C (A compound having a KD ratio of 0.1 or more and less than 3 is denoted as C)” and the IC50 [2] was 39.7 nM.
For `CCO[C@@H]1C[C@H]2C(=O)NC3(CCC3)C(=O)N(C)[C@@H](C3CCCC3)C(=O)N(C)[C@H](C(=O)N(C)CCOC)CC(=O)N(C)[C@@H](CC(F)F)C(=O)N[C@@H]([C@@H](C)CC)C(=O)N(C)CC(=O)N(C)[C@H]3C/C=C\CCN(C3=O)[C@@H](Cc3ccc(C(F)(F)F)cc3)C(=O)N(C)CC(=O)N[C@@H](CCc3cc(F)c(C(F)(F)F)c(F)c3)C(=O)N2C1` [PP1320], the “NRAS /KRAS” value ([1]; ratio of KD with respect to GDP-bound NRAS wild-type protein to KD with respect to KRAS) was “A (a compound having 10 or more and less than 20 is denoted as A)”, the “HRAS /KRAS” value (HRAS wild-type protein; ratio of KD with respect to HRAS wild-type protein to KD with respect to KRAS) was “A (a compound having 10 or more and less than 20 is denoted as A)” and the IC50 [2] was 7.7 nM.
For `CCCN1C(=O)CN(C)C(=O)CN(C)C(=O)[C@H]([C@@H](C)CC)NC(=O)[C@H](CC(C)C)N(C)C(=O)C[C@@H](C(=O)N2CCOCC2)N(C)C(=O)[C@H](C2CCCC2)N(C)C(=O)C2(COC2)NC(=O)[C@@H]2CCCN2C(=O)[C@H](CCc2cc(F)c(C(F)(F)F)c(F)c2)NC(=O)CN(C)C(=O)[C@@H]1Cc1ccc(C(F)(F)F)cc1` [PP0765] ([NMeL]I[Sar][Sar][NPrPhe(4-CF3)][Sar][hPhe(3,5-F2-4-CF3)]P[Ac4c(3-oxa)][NMeGly(cPent)][NMeD]-Morpholide; lactam N-11), the “NRAS /KRAS” value [1, 7] was “B (a compound having 3 or more and less than 10 is denoted as B)”, the “HRAS /KRAS” value (HRAS wild-type protein; [8]) was “C (A compound having a KD ratio of 0.1 or more and less than 3 is denoted as C)” and the IC50 [2] was 123 nM.
With `CC[C@H](C)[C@@H]1NC(=O)[C@H](CC2CC2)N(C)C(=O)C[C@@H](C(=O)N(C)C)N(C)C(=O)[C@H](C2CCCC2)N(C)C(=O)C2(CCC2)NC(=O)[C@@H]2[C@@H](OCC(F)F)CCN2C(=O)[C@H](CCc2cc(F)c(C(F)(F)F)c(F)c2)NC(=O)CN(C)C(=O)[C@H](Cc2ccc(C(F)(F)F)cc2)N2CC/C=C\C[C@@H](C2=O)N(C)C(=O)CN(C)C1=O` [PP1533] the “NRAS /KRAS” value [1, 5] was “AA (a compound having 20 or more is denoted as AA)”, the “HRAS /KRAS” value (HRAS wild-type protein; [6]) was “A (a compound having 10 or more and less than 20 is denoted as A)” and the IC50 [2] was 23.8 nM.
With `CCC[C@H]1C(=O)N[C@@H]([C@@H](C)CC)C(=O)N(C)CC(=O)N(C)[C@H]2C/C=C\CCN(C2=O)[C@@H](Cc2ccc(C(F)(F)F)cc2)C(=O)N(C)CC(=O)N[C@@H](CCc2ccc3ccn(C)c3c2)C(=O)N2C[C@H](OCC)C[C@H]2C(=O)NC2(CC(C)(C)C2)C(=O)N(C)[C@@H](C2CCCC2)C(=O)N(C)[C@H](C(=O)N(C)C)CC(=O)N1C` [PP2901] the “NRAS /KRAS” value [1, 7] was “A (a compound having 10 or more and less than 20 is denoted as A)”, the “HRAS /KRAS” value (HRAS wild-type protein; [8]) was “A (a compound having 10 or more and less than 20 is denoted as A)” and the IC50 [2] was 86.5 nM.
In the case of `CCC[C@H]1C(=O)N[C@@H]([C@@H](C)CC)C(=O)N(C2CC2)CC(=O)N(C)[C@H]2C/C=C\CCN(C2=O)[C@@H](Cc2ccc(C(F)(F)F)cc2)C(=O)N(C)CC(=O)N[C@@H](CCc2ccc(C(F)(F)F)c(OC)c2)C(=O)N2C[C@H](OCC)C[C@H]2C(=O)NC2(CC(C)(C)C2)C(=O)N(C)[C@@H](CC2CCC2)C(=O)N(C)[C@H](C(=O)N(C)C)CC(=O)N1C` [PP2770], the “NRAS /KRAS” value [1, 7] is reported as “A (a compound having 10 or more and less than 20 is denoted as A)”, the “HRAS /KRAS” value (HRAS wild-type protein; [8]) is reported as “A (a compound having 10 or more and less than 20 is denoted as A)” and the IC50 [2] is reported as 137 nM.
`CCO[C@@H]1C[C@H]2C(=O)NC3(CC(C)(C)C3)C(=O)N(C)[C@@H](CC(C)(C)C)C(=O)N(C)[C@H](C(=O)N(C)C)CC(=O)N(C)[C@@H](C(C)C)C(=O)N[C@@H]([C@@H](C)CC)C(=O)N(C)CC(=O)N(C)[C@H]3C/C=C\CCN(C3=O)[C@@H](Cc3ccc(C(F)(F)F)cc3)C(=O)N(C)CC(=O)N[C@@H](CCc3ccc(C(F)(F)F)c(OC)c3)C(=O)N2C1` [PP2773] was tested, and the “NRAS /KRAS” value [1, 7] was “B (a compound having 3 or more and less than 10 is denoted as B)”, the “HRAS /KRAS” value (HRAS wild-type protein; [8]) was “B (a compound having 3 or more and less than 10 is denoted as B)” and the IC50 [2] was 8.6 nM.
For `CCCN1C(=O)CN(C)C(=O)[C@@H]2CCN2C(=O)[C@H]([C@@H](C)CC)NC(=O)[C@H](CC(C)C)N(C)C(=O)C[C@@H](C(=O)N(C)C)NC(=O)[C@H](C2CCCC2)N(C)C(=O)C2(CCCC2)NC(=O)[C@@H]2CC(F)(F)CN2C(=O)[C@H](CCc2ccc(C(F)(F)F)c(Cl)c2)NC(=O)CN(C)C(=O)[C@@H]1Cc1ccc(C(F)(F)F)cc1` [PP0375] ([NMeL]I[Aze][Sar][NPrPhe(4-CF3)][Sar][hPhe(3-Cl-4-CF3)][Pro(4,4-F2)][Ac5c][NMeGly(cPent)]D-NMe2; lactam N-11), the “NRAS /KRAS” value [1, 7] was “B (a compound having 3 or more and less than 10 is denoted as B)”, the “HRAS /KRAS” value (HRAS wild-type protein; [8]) was “B (a compound having 3 or more and less than 10 is denoted as B)” and the IC50 [2] was 57.1 nM.
`CCO[C@@H]1C[C@H]2C(=O)NC3(CCC3)C(=O)N(C)[C@@H](C(CC)CC)C(=O)N(C)[C@H](C(=O)N3CCCC3)CC(=O)N(C)[C@H]3CCCC/C=C/c4ccc(cc4)C[C@@H](C(=O)N(C)CC(=O)N[C@@H](CCc4ccc(Cl)c(Cl)c4)C(=O)N2C1)N1CC/C=C\C[C@@H](C1=O)N(C)C(=O)CN(C)C(=O)[C@H]([C@@H](C)CC)NC3=O` [PP3047] was tested, and the “NRAS /KRAS” value [1, 7] was “AA (a compound having 20 or more is denoted as AA)”, the “HRAS /KRAS” value (HRAS wild-type protein; [8]) was “A (a compound having 10 or more and less than 20 is denoted as A)” and the IC50 [2] was 6.1 nM.
